In data set [1] the test system is A549 (human non-small-cell lung cancer). Kind of data set: MTT cytotoxicity assay, A549. Type of data set: cell-based. The following applies: Homo sapiens, A549, 72 h treatment, read-out: Half Maximal Inhibitory Concentration (IC50) A549. The method, then:
(§1) The cytotoxicity of hederagenin derivatives in vitro was evaluated on three tumor cell lines (A549: human non-small-cell lung cancer; MCF-7: human mammary cancer; HepG2: human hepatocellular carcinoma) using the 3-(4,5-dimethylthiazol-2-yl)-2,5-diphenyltetrazolium bromide (MTT) assay. In addition, their toxicity evaluations were tested on H9c2 (murine heart myoblast) and MDCK (Madin–Darby canine kidney) cells. MCF-7, A549, HepG2, H9c2, and MDCK cells were obtained from the Chinese Academy of Medical Sciences and Peking Union Medical College. All of the cell lines were maintained in Dulbecco’s modified Eagle medium (DMEM) supplemented with 1% (v/v) penicillin/streptomycin and 10% (v/v) fetal bovine serum (FBS; Thermo Technologies, New York, NY, USA) under a humidified atmosphere containing 5% CO2 at 37 °C. The stock solutions of He derivatives were dissolved in dimethyl sulfoxide (DMSO; Sigma, St. Louis, MO, USA) and added at various concentrations to the cell culture. Cellular morphologies were observed using an inverted fluorescence microscope (Olympus IX71, Tokyo, Japan), a plate reader (BIORAD 550 spectrophotometer, Bio-rad Life Science Development Ltd., Beijing, China), and a Canton 2 flow cytometer (BD, New York, NY, USA). The antitumor activity of these compounds were evaluated on MCF-7, A549, HepG2, MDCK, and H9c2 cell lines using the MTT assay. Cells at a density of 3 × 10^3 cells/well were plated in a 96-multiwell plate in DMEM containing 10% FBS for 24 h at 37 °C with 5% CO2. Then, cells were treated for 72 h with the required concentrations (3.125, 6.25, 12.5, 25, or 50 μM) of the compounds and reference drugs (He and DDP) dissolved with the vehicle DMSO. After that, the culture substrate was replaced with 200 μL of DMEM containing 20 μL of MTT solution at 5 mg/mL and incubated for 4 h. The supernatant was removed and the dissolved formazans precipitated with 120 μL of DMSO. Wells without drugs were used as blanks. A plate reader was used to determine the absorbance at 490 nm. The above steps were repeated three times. The IC50 values were defined as the concentration of the compound which gave 50% growth inhibition, and they were calculated using Graph Pad Prism 5. The inhibition rate was calculated using the following formula, where OD is the optical density:% inhibition = 1 − (Sample group OD/Control group OD) × 100%. (1)
On the technique in general: Tetrazolium dyes change colour on reduction, which living cells bring about.

Data set [2] has as its system MCF-7 (human mammary cancer). The data set can be described thus: MTT cytotoxicity assay, MCF-7. The conditions noted are these: Homo sapiens, MCF7, 72 h treatment, read-out: Half Maximal Inhibitory Concentration (IC50) MCF-7. Type of data set: cell-based. The method, then:
as §1

In data set [3] the test system is HepG2 (human hepatocellular carcinoma). Kind of data set: MTT cytotoxicity assay, HepG2. The class given is cell-based. The conditions noted are these: for IC50: Homo sapiens, HepG2, MTT, 72 h treatment, read-out: Half Maximal Inhibitory Concentration (IC50) HepG2. The method, then: as §1
The test system of data set [4] is MDCK (Madin–Darby canine kidney) cells. The data set can be described thus: MTT toxicity evaluation, MDCK. Type of data set: cell-based. The following applies: Canis lupus familiaris, MDCK, 72 h treatment, non-tumor cells, read-out: Half Maximal Inhibitory Concentration (IC50) MDCK. On the procedure:
as §1

Data set [5] relates to H9c2 (murine heart myoblast). The data set can be described thus: MTT toxicity evaluation, H9c2. The class given is cell-based. The conditions noted are these: H9c2, 72 h treatment, non-tumor cells, read-out: Half Maximal Inhibitory Concentration (IC50) H9c2. The method, then:
as §1

Take `Cc1nc(C)c(C(=O)OC[C@@]2(C)C3CC[C@]4(C)C(CC=C5C6CC(C)(C)CC[C@]6(C(=O)OCCCCCl)CC[C@]54C)[C@@]3(C)CC[C@@H]2O)nc1C` (stereo partly drawn) [Compound 26, ((3S,4R,6aR,6bS,8aS,14bR)-8a-((4-Chlorobutoxy)carbonyl)-3-hydroxy-4,6a,6b,11,11,14b-hexamethyl-1,2,3,4,4a,5,6,6a,6b,7,8,8a,9,10,11,12,12a,14,14a,14b-icosahydropicen-4-yl)methyl 3,5,6-trimethylpyrazine-2-carboxylate]: the melting point (in general, the temperature of the solid-liquid transition) was found to be 168.1 °C. Further, the IC50 in data set [1] was over 30 µM. The IC50 in data set [2] came out at 18.3 ± 1.16 µM. Moreover, the IC50 in data set [3] amounted to 7.15 ± 0.85 µM. Moreover, in data set [4], the IC50 was over 30 µM. In data set [5], the IC50 is over 30 µM.
Compound `Cc1cnc(COC(=O)[C@]23CCC(C)(C)CC2C2=CCC4[C@@]5(C)CC[C@H](O)[C@@](C)(CO)C5CC[C@@]4(C)[C@]2(C)CC3)cn1` (stereo partly drawn) [Compound 3, (5-Methylpyrazin-2-yl)methyl(4aS,6aS,6bR,9R,10S,12aR)-10-hydroxy-9-(hydroxymethyl)-2,2,6a,6b,9,12a-hexamethyl-1,3,4,5,6,6a,6b,7,8,8a,9,10,11,12,12a,12b,13,14b-octadecahydropicene-4a(2H)-carboxylate] came in with a melting point of 170.3 °C. Further, the IC50 in data set [1] came out at 15 ± 0.35 µM. Moreover, the IC50 in data set [2] was 16.8 ± 9.25 µM. The IC50 in data set [3] came to 18.9 ± 0.35 µM. Moreover, the IC50 in data set [4] came out at 18.4 ± 3.76 µM. Besides, the IC50 in data set [5] is over 30 µM.
Turning to `Cc1cnc(C(=O)OC[C@@]2(C)C3CC[C@]4(C)C(CC=C5C6CC(C)(C)CC[C@]6(C(=O)OCCCCCl)CC[C@]54C)[C@@]3(C)CC[C@@H]2O)cn1` (stereo partly drawn) [Compound 23, ((3S,4R,6aR,6bS,8aS,14bR)-8a-((4-Chlorobutoxy)carbonyl)-3-hydroxy-4,6a,6b,11,11,14b-hexamethyl-1,2,3,4,4a,5,6,6a,6b,7,8,8a,9,10,11,12,12a,14,14a,14b-icosahydropicen-4-yl)methyl 5-methylpyrazine-2-carboxylate], the melting point is 175.8 °C. Besides, the IC50 in data set [1] turned out to be 18.7 ± 0.32 µM. Also, the IC50 in data set [2] is 21.3 ± 1.28 µM. Further, the IC50 in data set [3] amounted to 7.17 ± 1.09 µM. In addition, in data set [4], the IC50 is 19.5 ± 2.47 µM. In addition, the IC50 in data set [5] is 23.4 ± 0.55 µM.
`Cc1cncc(COC(=O)[C@]23CCC(C)(C)CC2C2=CCC4[C@@]5(C)CC[C@H](O)[C@@](C)(CO)C5CC[C@@]4(C)[C@]2(C)CC3)n1` (stereo partly drawn) [Compound 2, (6-Methylpyrazin-2-yl)methyl(4aS,6aS,6bR,9R,10S,12aR)-10-hydroxy-9-(hydroxymethyl)-2,2,6a,6b,9,12a-hexamethyl-1,3,4,5,6,6a,6b,7,8,8a,9,10,11,12,12a,12b,13,14b-octadecahydropicene-4a(2H)-carboxylate] displayed a melting point of 107 °C. In addition, in data set [1], the IC50 was determined as 20.6 ± 0.29 µM. Also, in data set [2], the IC50 was 15.8 ± 0.22 µM. Besides, the IC50 in data set [3] was 27.2 ± 1.82 µM. For the same compound, the IC50 in data set [4] worked out at 26.7 ± 1.64 µM. Moreover, the IC50 in data set [5] turned out to be 25.1 ± 0.43 µM.
In turn, `CC1(C)CC[C@]2(C(=O)OCCCCOC(=O)c3cnccn3)CC[C@]3(C)C(=CCC4[C@@]5(C)CC[C@H](O)[C@@](C)(CO)C5CC[C@]43C)C2C1` (stereo partly drawn) [Compound 14, 4-(((4aS,6aS,6bR,9R,10S,12aR)-10-Gydroxy-9-(hydroxymethyl)-2,2,6a,6b,9,12a-hexamethyl-1,2,3,4,4a,5,6,6a,6b,7,8,8a,9,10,11,12,12a,12b,13,14b-icosahydropicene-4a-carbonyl)oxy)butyl-pyrazine-2-carboxylate] yielded a melting point of 127 °C. In addition, the IC50 in data set [1] stood at 17.6 ± 2.33 µM. In addition, the IC50 in data set [2] worked out at 31.23 ± 0.15 µM. Besides, the IC50 in data set [3] was found to be 7.05 ± 0.17 µM. For the same compound, the “selective inhibition (SI = IC50 MCF-7/IC50 HepG2)” value in data set [3] (ratio of IC50 MCF-7 to IC50 HepG2) amounted to 4.43. Besides, the IC50 in data set [4] is 18.1 ± 0.12 µM. Also, the IC50 in data set [5] came out at 15.9 ± 0.22 µM.
`CC1(C)CC[C@]2(C(=O)OCCOC(=O)c3cnccn3)CC[C@]3(C)C(=CCC4[C@@]5(C)CC[C@H](O)[C@@](C)(CO)C5CC[C@]43C)C2C1` (stereo partly drawn) [Compound 8, 2-(((4aS,6aS,6bR,9R,10S,12aR)-10-Hydroxy-9-(hydroxymethyl)-2,2,6a,6b,9,12a-hexamethyl-1,2,3,4,4a,5,6,6a,6b,7,8,8a,9,10,11,12,12a,12b,13,14b-icosahydropicene-4a-carbonyl)oxy)ethylpyrazine-2-carboxylate]: the melting point is 154.7 °C. The IC50 in data set [1] stood at 23.9 ± 0.31 µM. Also, the IC50 in data set [2] amounted to 25.35 ± 0.09 µM. In addition, the IC50 in data set [3] was 17.4 ± 0.75 µM. Also, in data set [4], the IC50 is 20.1 ± 0.3 µM. For the same compound, the IC50 in data set [5] came out at 21.7 ± 0.86 µM.

For the origin of these results see PMC6213900, “Design, Synthesis, and Cytotoxic Analysis of Novel Hederagenin–Pyrazine Derivatives Based on Partial Least Squares Discriminant Analysis” (International Journal of Molecular Sciences, 2018).
